Test system: tissue plasminogen activator (t-PA)
Experiment: Monitoring drug treatment: t-PA mRNA by one step real-time RT-PCR from HeLa cell lysate
Type: cell-based, human
Conditions: lysate 40 cells/μl, PMA 1 nM, 24 hours
Experimental: HeLa cells were seeded DME media with 10% FBS in each of three wells in a 12-well tissue culture plate (Nalge Nunc International, Cat. #150628) at 125,000 cells/well. After an overnight incubation, phorbol myristate acetate (PMA) was added to final concentrations of 10, 1 and 0 nM in the growth medium. The cells were incubated at 37° C. for 24 hours. The medium was removed and the cells washed with PBS. The cells were incubated with 0.05% trypsin in 0.53 mM EDTA for 10 minutes at 37° C. to detach the cells. Cells were counted and concentration was determined. Cells were centrifuged at 800×g for 5 minutes. The medium was removed and the cells were washed once with PBS. Each cell pellet was suspended in PBS to obtain a stock solution of 10000 cells/μl. A five-fold serial dilution of the stock solution with PBS was carried out to give 10000, 2000 and 400 cells/0.10 μl of each dilution was added to 90 μl of Buffer at room temperature such that the final cell concentrations in the lysate were 1000, 200 and 40 cells/μl. The samples were gently shaken at room temperature (˜21° C.) for 1 to 2 min. As in EXAMPLE 1, cell lysate of 30% of the final reaction volume was added to a one step real-time RT-PCR reaction with primers and TaqMan probe for tissue plasminogen activator (t-PA) and 18S rRNA (EXAMPLE 8). The t-PA primer and probe sequences were as follows: Forward primer, 5′-[…]-3′ (SEQ ID NO. 34); Reverse primer, 5′-[…]-3′ (SEQ ID NO. 35); TaqMan Probe: 5′-(FAM)-[…]-(TAMRA)-3′ (SEQ ID NO. 36).

Compound | t-PA (fold increase compared to 0 nM PMA) [fold]
CCCCCCCCCCCCCC(=O)O[C@@H]1[C@@H](C)[C@@]2(O)[C@@H](C=C(CO)C[C@]3(O)C(=O)C(C)=C[C@@H]23)[C@@H]2C(C)(C)[C@]12OC(C)=O [PMA, phorbol myristate acetate] | 16

Same assay, conditions: lysate 40 cells/μl, PMA 10 nM, 24 hours

Compound | t-PA (fold increase compared to 0 nM PMA) [fold]
CCCCCCCCCCCCCC(=O)O[C@@H]1[C@@H](C)[C@@]2(O)[C@@H](C=C(CO)C[C@]3(O)C(=O)C(C)=C[C@@H]23)[C@@H]2C(C)(C)[C@]12OC(C)=O [PMA, phorbol myristate acetate] | 147

Same assay, conditions: lysate 200 cells/μl, PMA 1 nM, 24 hours

Compound | t-PA (fold increase compared to 0 nM PMA) [fold]
CCCCCCCCCCCCCC(=O)O[C@@H]1[C@@H](C)[C@@]2(O)[C@@H](C=C(CO)C[C@]3(O)C(=O)C(C)=C[C@@H]23)[C@@H]2C(C)(C)[C@]12OC(C)=O [PMA, phorbol myristate acetate] | 9

Same assay, conditions: lysate 200 cells/μl, PMA 10 nM, 24 hours

Compound | t-PA (fold increase compared to 0 nM PMA) [fold]
CCCCCCCCCCCCCC(=O)O[C@@H]1[C@@H](C)[C@@]2(O)[C@@H](C=C(CO)C[C@]3(O)C(=O)C(C)=C[C@@H]23)[C@@H]2C(C)(C)[C@]12OC(C)=O [PMA, phorbol myristate acetate] | 62

Same assay, conditions: lysate 1000 cells/μl, PMA 1 nM, 24 hours

Compound | t-PA (fold increase compared to 0 nM PMA) [fold]
CCCCCCCCCCCCCC(=O)O[C@@H]1[C@@H](C)[C@@]2(O)[C@@H](C=C(CO)C[C@]3(O)C(=O)C(C)=C[C@@H]23)[C@@H]2C(C)(C)[C@]12OC(C)=O [PMA, phorbol myristate acetate] | 8

Same assay, conditions: lysate 1000 cells/μl, PMA 10 nM, 24 hours

Compound | t-PA (fold increase compared to 0 nM PMA) [fold]
CCCCCCCCCCCCCC(=O)O[C@@H]1[C@@H](C)[C@@]2(O)[C@@H](C=C(CO)C[C@]3(O)C(=O)C(C)=C[C@@H]23)[C@@H]2C(C)(C)[C@]12OC(C)=O [PMA, phorbol myristate acetate] | 39

Test system: not given
Experiment: not given
Conditions: cited from earlier work

Compound | pKa
CCCC(N)C(=O)O (stereo not drawn) [2-aminopentanoic acid] | 2.3
O=C(O)c1ccc([N+](=O)[O-])cc1 [4-nitrobenzoic acid] | 3.4
CC(C)(N)C(=O)O [2-amino-2-methylpropionic acid] | 2.4
CC(C)(C#N)C(=O)O [2-cyano-2-methylpropionic acid] | 2.4
CCC(CC)C(=O)O [2-ethylbutyric acid] | 4.8
CC[C@H](C)[C@H](N)C(=O)O [isoleucine] | 2.3
Nc1ccc(S(=O)(=O)O)cc1 [4-aminobenzenesulfonic acid] | 3.2
O=C(O)c1ccco1 [2-furancarboxylic acid] | 3.2
CCC(=O)NCC(=O)O [N-propionylglycine] | 3.7
O=C(O)c1cccc(Br)c1 [3-bromobenzoic acid] | 3.8
Nc1ccccc1S(=O)(=O)O [2-aminobenzenesulfonic acid] | 2.5
CCC(C)C(N)C(=O)O (stereo not drawn) [2-amino-3-methylpentanoic acid] | 2.3
CC(=O)NCC(=O)O [N-acetylglycine] | 3.7
N#CCC(=O)O [cyanoacetic acid] | 2.5
CC(=O)NCCC(=O)O [β-acetylaminopropionic acid] | 4.4
CC(C)(C)c1cccc(C(=O)O)c1 [3-tert-butylbenzoic acid] | 4.2
Cc1cc(C)c(C)c(C(=O)O)c1C [2,3,5,6-tetramethylbenzoic acid] | 3.5
Nc1cccc(S(=O)(=O)O)c1 [3-aminobenzenesulfonic acid] | 3.7
O=C(O)C#CCl [chloropropynoic acid] | 1.85
C[C@H](NC(N)=O)C(=O)O [N-carbamoylalanine] | 3.9
Cc1cc(C)c(C(=O)O)c(C)c1 [2,4,6-trimethylbenzoic acid] | 3.4
CC(=O)N[C@@H](C)C(=O)O [N-acetylalanine] | 3.7
O=C(O)c1c(O)ccc2ccccc12 [2-hydroxy-1-naphthoic acid] | 3.3
CC(C)C(C(=O)O)C(=O)O [isopropylmalonic acid] | 2.4

Source: patent publication US8114594B2, “Crude biological derivatives competent for nucleic acid detection” (Applied Biosysyems, LLC, priority 2004, dated 2012)
